Source: patent US20010047021A1, “Cancer treatment” (The Procter & Gamble Company, priority 2000, published 2001)

System: SK-OV-3 tumor lines
Test: SK-OV-3 tumor in nude mouse, average tumor weight
Format: in vivo
Method: 2-Methoxycarbonylamino-4,5,6,7-tetrafluorobenzimidazole (tetrafluoro) was used to treat SK-OV-3 tumor lines in nude mouse. The average tumor weight is reported in mg. The control was the vehicle given twice a week and also 5 times a week. The 2-methoxycarbonyl-amino-4,5,6,7- tetrafluorobenzimidazole was also given on this same schedule. Both compounds were administered by oral gavage.

Q: Which results are given for `COC(=O)Nc1nc2c(F)c(F)c(F)c(F)c2[nH]1` [Tetrafluoro, 2-Methoxycarbonylamino-4,5,6,7-tetrafluorobenzimidazole]?
A: Average Tumor Weight (2000 mg/kg 2x wkly, oral gavage, day 1): 58.5 mg; Average Tumor Weight (2000 mg/kg 2x wkly, oral gavage, day 5): 108.1 mg; Average Tumor Weight (2000 mg/kg 2x wkly, oral gavage, day 9): 246.8 mg; Average Tumor Weight (2000 mg/kg 2x wkly, oral gavage, day 12): 476.2 mg; Average Tumor Weight (2000 mg/kg 2x wkly, oral gavage, day 15): 770 mg; Average Tumor Weight (2000 mg/kg qdx5, oral gavage, day 1): 59.1 mg; Average Tumor Weight (2000 mg/kg qdx5, oral gavage, day 5): 106.2 mg; Average Tumor Weight (2000 mg/kg qdx5, oral gavage, day 9): 255.8 mg; Average Tumor Weight (2000 mg/kg qdx5, oral gavage, day 12): 381.7 mg; Average Tumor Weight (2000 mg/kg qdx5, oral gavage, day 15): 781.2 mg; Average Tumor Weight (4000 mg/kg 2x wkly, oral gavage, day 1): 59.5 mg; Average Tumor Weight (4000 mg/kg 2x wkly, oral gavage, day 5): 98.6 mg; Average Tumor Weight (4000 mg/kg 2x wkly, oral gavage, day 9): 204 mg; Average Tumor Weight (4000 mg/kg 2x wkly, oral gavage, day 12): 336.6 mg; Average Tumor Weight (4000 mg/kg 2x wkly, oral gavage, day 15): 672.9 mg; Average Tumor Weight (4000 mg/kg qdx5, oral gavage, day 1): 59.5 mg; Average Tumor Weight (4000 mg/kg qdx5, oral gavage, day 5): 66.1 mg; Average Tumor Weight (4000 mg/kg qdx5, oral gavage, day 9): 150.8 mg; Average Tumor Weight (4000 mg/kg qdx5, oral gavage, day 12): 160.7 mg; Average Tumor Weight (4000 mg/kg qdx5, oral gavage, day 15): 315.8 mg; effect on the growth of the tumor (SK-OV-3 tumor, nude mouse, oral gavage): dose responsive effect
